Calls of active or inactive are those of the source. The calls are words filed in the database; no cut-off is given here.
Assays:
[1] = Antioxidant activity by measuring oxygen radical absorbance capacity-fluorescein values; assay type: functional
[2] = biological target: T1, Amyloid-beta precursor protein (Homo sapiens, UniProt P05067); assay: Inhibition of amyloid beta (1 to 42) (unknown origin) self aggregation at 50 uM relative to control
[3] = biological target: T1, Amyloid-beta precursor protein; assay: Inhibition of amyloid beta (1 to 42) (unknown origin) self aggregation
[4] = Metal chelating activity assessed as compound-Na+ complex formation by optical shift at 50 uM in PBS buffer 7.4 by UV-vis spectrometric analysis
[5] = Metal chelating activity assessed as compound-K+ complex formation by optical shift at 50 uM in PBS buffer 7.4 by UV-vis spectrometric analysis
[6] = Metal chelating activity assessed as compound-Ca2+ complex formation by optical shift at 50 uM in PBS buffer 7.4 by UV-vis spectrometric analysis
[7] = Metal chelating activity assessed as compound-Mn2+ complex formation by optical shift at 50 uM in PBS buffer 7.4 by UV-vis spectrometric analysis
[8] = biological target: T1, Amyloid-beta precursor protein; assay: Inhibition of Cu2+ induced of amyloid beta (1 to 42) aggregation (unknown origin)
[9] = biological target: T1, Amyloid-beta precursor protein; assay: Inhibition of amyloid beta (1 to 42) (unknown origin) self aggregation assessed as low density in amyloid fibrils compound addition at 50 uM after fibrilation for 24 hrs
BV-2 [10] = assay: Neuroprotective activity against amyloid beta (1 to 42) induced neurotoxicity in mouse BV-2 cells assessed as survival of cells at 2.5 uM treated for 24 hrs relative to control; assay type: functional
BV-2 [11] = assay: Neuroprotective activity against amyloid beta (1 to 42) induced neurotoxicity in mouse BV-2 cells assessed as survival of cells at 10 uM treated for 24 hrs relative to control; assay type: functional
BV-2 [12] = assay: Effect of amyloid beta (1 to 42) indued apoptosis in mouse BV-2 cells assessed as late apoptotic cells at 2.5 uM measured by propidium iodide staining based flow cytometric analysis (reference value: 6.88%); assay type: functional
BV-2 [13] = assay: Effect of amyloid beta (1 to 42) indued apoptosis in mouse BV-2 cells assessed as necrotic cells at 2.5 uM measured by propidium iodide staining based flow cytometric analysis (reference value: 5.72%); assay type: functional
BV-2 [14] = assay: Effect of amyloid beta (1 to 42) indued apoptosis in mouse BV-2 cells assessed as viable cells at 5 uM measured by propidium iodide staining based flow cytometric analysis (reference value: 61.29%); assay type: functional; details: read-out: Activity
BV-2 [15] = assay: Effect of amyloid beta (1 to 42) indued apoptosis in mouse BV-2 cells assessed as late apoptotic cells at 10 uM measured by propidium iodide staining based flow cytometric analysis (reference value: 6.88%); assay type: functional
BV-2 [16] = assay: Effect of amyloid beta (1 to 42) indued apoptosis in mouse BV-2 cells assessed as necrotic cells at 10 uM measured by propidium iodide staining based flow cytometric analysis (reference value: 5.72%); assay type: functional
BV-2 [17] = assay: Effect on H2O2 induced reactive oxygen species in mouse BV-2 cells assessed as reduction of ROS generation at 10 uM by fluorescence microscopic analysis relative to control; assay type: functional; set-up: scale not given: the % may be the effect or the level left
BV-2 [18] = assay: Effect on H2O2 induced reactive oxygen species in mouse BV-2 cells assessed as reduction of ROS generation at 20 uM by fluorescence microscopic analysis relative to control; assay type: functional; set-up: scale not given: the % may be the effect or the level left
[19] = Tmax in Sprague-Dawley rat at 15 mg/kg, IG; assay type: ADME, organism-based; details: in vivo, po
[20] = Drug concentration in plasma of Sprague-Dawley rat at 15 mg/kg, IG measured after 0.5 hrs; assay type: ADME, organism-based; details: po
[21] = Drug concentration in plasma of Sprague-Dawley rat at 15 mg/kg, IG measured after 2 hrs; assay type: ADME, organism-based; details: po
[22] = Drug concentration in plasma of Sprague-Dawley rat at 15 mg/kg, IG measured after 4 hrs; assay type: ADME, organism-based; details: po
[23] = Drug concentration in hippocampus of Sprague-Dawley rat at 15 mg/kg, IG measured after 0.5 hrs; assay type: ADME, organism-based; details: po, read-out: Drug uptake
[24] = Drug concentration in hippocampus of Sprague-Dawley rat at 15 mg/kg, IG measured after 1 hrs; assay type: ADME, organism-based; details: po, read-out: Drug uptake
[25] = Drug concentration in hippocampus of Sprague-Dawley rat at 15 mg/kg, IG measured after 2 hrs; assay type: ADME, organism-based; details: po, read-out: Drug uptake
[26] = Drug concentration in hippocampus of Sprague-Dawley rat at 15 mg/kg, IG measured after 4 hrs; assay type: ADME, organism-based; details: po, read-out: Drug uptake
[27] = Ratio of drug concentration in hippocampus to plasma of Sprague-Dawley rat at 15 mg/kg, IG measured after 0.5 hrs; assay type: ADME, organism-based; details: po
[28] = Ratio of drug concentration in hippocampus to plasma of Sprague-Dawley rat at 15 mg/kg, IG measured after 1 hrs; assay type: ADME, organism-based; details: po
[29] = Ratio of drug concentration in hippocampus to plasma of Sprague-Dawley rat at 15 mg/kg, IG measured after 2 hrs; assay type: ADME, organism-based; details: po
[30] = Ratio of drug concentration in hippocampus to plasma of Sprague-Dawley rat at 15 mg/kg, IG measured after 4 hrs; assay type: ADME, organism-based; details: po
[31] = Acute toxicity in mouse assessed as change in behaviour at 2000 mg/kg, IG administered as single dose measured after 14 days; assay type: organism-based; details: in vivo, po, 336 h, time 14 day
[32] = Acute toxicity in mouse assessed as change in dietary activity at 2000 mg/kg, IG administered as single dose measured after 14 days; assay type: organism-based; details: in vivo, po, 336 h, time 14 day
[33] = Acute toxicity in mouse assessed as lethal dose administered as single IG dose measured after 14 days measured by H and E staining analysis; details: in vivo, po, time 14 day
Mus musculus [34] = assay: Cognitive enhancement in scopolamine induced ICR alzheimer's disease mouse assessed as gain in body weight pretreated with scopolamine at 3 mg/kg, ip for 31 days followed by compound addition at 20 mg/kg, po at day 7 to 31; assay type: functional, organism-based; details: time 25.0 day
Mus musculus [35] = assay: Anti alzheimer activity in scopolamine induced anxiety in ICR mouse assessed as relieved anxiety pretreated with scopolamine at 3 mg/kg, ip for 31 days followed by compound addition at 20 mg/kg, po at day 7 to 31; assay type: functional, organism-based; details: time 25.0 day
Mus musculus [36] = assay: Anti alzheimer activity in scopolamine induced anxiety in ICR mouse assessed as improved memory function pretreated with scopolamine at 3 mg/kg, ip for 31 days followed by compound addition at 20 mg/kg, po at day 7 to 31 by morris water maze test; assay type: functional, organism-based; details: time 25.0 day
Mus musculus [37] = assay: Anti alzheimer activity in scopolamine induced anxiety in ICR mouse assessed as improved cognitive function pretreated with scopolamine at 3 mg/kg, ip for 31 days followed by compound addition at 20 mg/kg, po at day 7 to 31 by morris water maze test; assay type: functional, organism-based; details: time 25.0 day
Mus musculus [38] = assay: Neuroprotective effect in scopolamine induced cognitively impaired mouse assessed as reversal of amyloid beta plaque deposition at 20 mg/kg by immunohistochemistry staining analysis; assay type: functional, organism-based
Mus musculus [39] = assay: Antioxidant activity in scopolamine induced cognitive impaired mouse assessed as reversal of HO-1 level in cortex at 20 mg/kg; assay type: functional, organism-based
BV-2 [40] = assay: Antioxidant activity in H2O2 treated mouse BV-2 cells assessed as reversal of HO-1 level at 5 to 20 uM by immunofluorescence analysis; assay type: functional, cell-based; details: dose 5-20 µM
Mus musculus [41] = assay: In vivo antiinflammatory activity in scopolamine induced cognitive impaired ICR mouse assessed as decrease in IL-1 levels in cortex; assay type: functional, organism-based

T1 sequence (P05067 whole entry): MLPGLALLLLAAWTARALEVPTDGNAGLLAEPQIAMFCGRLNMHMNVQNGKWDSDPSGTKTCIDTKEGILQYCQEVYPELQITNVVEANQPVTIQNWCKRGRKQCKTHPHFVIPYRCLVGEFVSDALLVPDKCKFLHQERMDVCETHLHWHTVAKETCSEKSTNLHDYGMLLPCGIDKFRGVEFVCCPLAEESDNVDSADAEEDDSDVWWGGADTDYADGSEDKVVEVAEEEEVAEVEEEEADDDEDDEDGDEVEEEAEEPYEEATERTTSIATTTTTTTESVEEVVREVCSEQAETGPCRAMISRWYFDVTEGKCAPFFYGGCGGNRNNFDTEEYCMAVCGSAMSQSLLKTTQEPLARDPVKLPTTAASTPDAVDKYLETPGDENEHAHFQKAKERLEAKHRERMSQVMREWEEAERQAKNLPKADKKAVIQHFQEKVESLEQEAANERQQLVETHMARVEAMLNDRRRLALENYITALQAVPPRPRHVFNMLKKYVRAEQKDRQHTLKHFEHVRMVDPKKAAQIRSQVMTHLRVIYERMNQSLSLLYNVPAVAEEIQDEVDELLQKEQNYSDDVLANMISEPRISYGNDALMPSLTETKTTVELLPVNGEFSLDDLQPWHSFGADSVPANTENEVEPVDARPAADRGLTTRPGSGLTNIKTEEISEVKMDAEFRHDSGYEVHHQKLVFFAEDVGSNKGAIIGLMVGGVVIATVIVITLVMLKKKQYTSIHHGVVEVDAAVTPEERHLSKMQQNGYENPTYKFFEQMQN

O=c1ccoc(/C=C/c2ccc(O)c(O)c2)c1O
Activity index [1]: 2.65
inhibition [2]: 80.3%
IC50 [3]: 11.1 µM
Activity [4]: inactive
Activity [5]: inactive
Activity [6]: inactive
Activity [7]: inactive
IC50 [8]: 3.69 µM
Activity [9]: Active
Activity (BV-2 [10]): 56.3%
Activity (BV-2 [11]): 75.5%
Activity (BV-2 [12]): 10.2%
Activity (BV-2 [13]): 0.16%
viability at 5 µM (BV-2 [14]): 77.4%
Activity (BV-2 [15]): 6.82%
Activity (BV-2 [16]): 7.98%
Activity (BV-2 [17]): 34.85%
Activity (BV-2 [18]): 45.48%
Tmax [19]: 10.2 min
concentration at 0.5 h [20]: 2.68 ng/mL
concentration at 2 h [21]: 0.99 ng/mL
concentration at 4 h [22]: 0.95 ng/mL
concentration at 0.5 h [23]: 5.4 ng/mL
concentration at 1 h [24]: 8.72 ng/mL
concentration at 2 h [25]: 6.37 ng/mL
concentration at 4 h [26]: 4.89 ng/mL
Kp at 0.5 h [27]: 2.27
Kp at 1 h [28]: 5.04
Kp at 2 h [29]: 7.12
Kp at 4 h [30]: 5.62
Activity [31]: Non-Toxic
Activity [32]: Non-Toxic
LD50 at 336 h [33]: ≥ 2000 mg/kg
Activity (Mus musculus [34]): Active
Activity (Mus musculus [35]): Active
Activity (Mus musculus [36]): Active
Activity (Mus musculus [37]): Active
Activity (Mus musculus [38]): Active
Activity (Mus musculus [39]): Active
Activity (BV-2 [40]): Active
Activity (Mus musculus [41]): Active
